Data reported in PMC8063472, “Pharmacokinetics of five phthalides in volatile oil of Ligusticum sinense Oliv.cv. Chaxiong, and comparison study on physicochemistry and pharmacokinetics after being formulated into solid dispersion and inclusion compound” (BMC Complementary Medicine and Therapies, 2021).
Where two headings read alike, the source gives them in different places.

Key:
[1] = Pharmacokinetic study in rats (plasma LC-MS/MS) after iv or oral VOC, oral VOC-P188 or oral VOC-β-CD; type: in vivo, Sprague Dawley rats; settings: for AUC(0-t) / MRT last / Tmax / half-life / Cmax / bioavailability: male, Sprague-Dawley, rat, plasma; for MRT last: read-out: MRT0-t; for half-life: read-out: t1/2β (converted)
Description: The intravenous injection solution was prepared by dissolving 0.15 g of VOC in 25 ml water containing 3 ml 10% Tween-80 as solubilizer. The oral solution was prepared by dissolving 0.35 g of VOC in 25 ml normal saline containing 3 ml 10% Tween-80 as solubilizer. The VOC-P188 solution was prepared by mixing VOC-P188 5 g in 25 ml water with magnetic stirring apparatus. The VOC-β-CD solution was prepared by mixing VOC-β-CD 3.5 g in 25 ml water with magnetic stirring apparatus.
Twenty-four male SD rats (220 ~ 250 g) were randomly divided into four groups, 6 in each group. After fasting for 12 h before administration, the rats in group 1 were given VOC by tail vein injection at a dose of 30 mg/Kg, the rats at second group were oral administration of VOC solution, the dosage was 120 mg/Kg based on the mass of VOC. The rats at groups 3 and 4 were given VOC-P188 and VOC-β-CD, respectively.
Blood samples (0.3 ml) were collected from the eyes at 0.08, 0.17, 0.33, 0.5, 1, 1.5, 2, 4, 6, 8, 12 and 24 h after administration, and they were immediately transferred into a heparinized Eppendorf (EP) tube. The blood samples were then centrifuged at 13,000 r/min for 10 min. The plasma samples were stored at − 80 °C for later analysis.
The thawed plasma sample (0.1 ml) was transferred to another EP tube and 20 μl of DL, 50 μl of 2% formic acid and 500 μl of methanol were added. The mixture was vortexed for 2 min, and centrifuged at 13000 r/min for 10 min. The supernatant was transferred into a clean EP tube, and evaporated to dryness under a stream of nitrogen at 40 °C. The residue was dissolved in 100 μl of methanol. The supernatant was injected into the HPLC system.
An HPLC system consisting of a solvent-delivery system LC-30 AD, an autosampler SIL-30 AC, a column oven CTO-30 AC, a solvent degasser DGU-20A3, and a controller CBM-20A from […] was used in the study. Separation was conducted using a Shim-pack GIST C18-AQ HP column (2.1 mm × 100 mm, 3 μm). The column oven was maintained at 35 °C. The mobile phase was 0.1% formic acid in water as mobile phase A and acetonitrile as mobile phase B. The linear gradient elution program was set according to preliminary tests: 45–60% B, 0–2 min; 60–65% B, 2–6 min; 65–95% B, 6–7 min; 95–45% B, 7–9 min and 45% B, 9–10 min, with the flow rate kept at 0.3 ml/min. The injection volume was set at 2 μl.
The MS analysis was performed on a 4500 QTRAP™ system from Applied Biosystems (AB Sciex) equipped with Turbo V sources and Turbo Ion Spray™ (TIS) interface. Electrospray ionization was performed in positive mode. Ion source: electrospray ion source (ESI source); detection method: multiple reaction monitoring (MRM); ion source temperature: 500 °C; desolvent gas temperature: 550 °C; desolvent gas flow rate: 800 l/h. The detection ion pair, retention time, declustering voltage and collision energy of each index component and internal standard were shown in Table 2.
The plasma SA, NBP, NOL, ZL and BP concentrations were evaluated using the equation from the standard curves that were run with each batch of samples. The plasma concentration-time data were analyzed with the Drug and Statistics 2.0 software package to determine the pharmacokinetic parameters. The observed Cmax value was obtained from the observed data and the observed AUC0 → t value was calculated using the trapezoidal rule. The absolute bioavailability of VOC and the relative bioavailability of VOC-P188 and VOC-β-CD were calculated, the formula for calculating absolute bioavailability (F1) and relative bioavailability (F2): F1=AUCpo×Div/AUCiv×Dpo×100% […]
Where AUC is the area under the temporal curve of blood drug concentration (μg/l*h), D is administration dosage (mg/kg); the subscripts iv and po are injection and oral administration, respectively; the subscript R is reference drug (VOC); the subscript T is solid dispersion or inclusion compound.

[2] = In vitro dissolution, paddle method, pH 5.8 phosphate buffer; type: physicochemical
Description: Dissolution studies were performed according to the USP XXI method 2 (paddle method) at 37 ± 0.5 °C at 50 rpm. 900 ml of dissolution medium were used as standard volume. Dissolution samples (1 mL) were withdrawn at the specified times of 15, 30, 45, 60, 90, 120 min from Dissolution cups, and 1 ml of dissolution medium was replenished in the same time. Samples were filtered through a 0.45 μm nylon disc filter and were measured absorbance at 230 nm by HPLC [11].

[3] = set-up: method as in PMID 18039808; settings: cited from earlier work
[4] = Stability test of VOC-P188 and VOC-β-CD (temperature, illumination); type: physicochemical
[5] = VOC iv 30 mg/kg, rat plasma, n = 6
[6] = VOC po 120 mg/kg, rat plasma, n = 6
[7] = VOC-P188 solid dispersion po vs VOC po, rats
[8] = VOC-P188 solid dispersion po, rat plasma, n = 6
[9] = VOC-β-CD inclusion compound po vs VOC po, rats
[10] = VOC-β-CD inclusion compound po, rat plasma, n = 6
[11] = iv, 30 mg/kg, VOC iv 30 mg/kg, rat plasma, n = 6
[12] = iv, 30 mg/kg, VOC iv 30 mg/kg, rat plasma, n = 6, read-out: Tmax
[13] = iv, 30 mg/kg, VOC iv (tail vein) 30 mg/kg, rat plasma, n = 6
[14] = po, 120 mg/kg, VOC po 120 mg/kg, rat plasma, n = 6
[15] = po, 120 mg/kg, VOC po 120 mg/kg, rat plasma, n = 6, read-out: Tmax
[16] = po, 120 mg/kg, after oral administration of VOC, rats, read-out: Tmax (time of peak concentration)
[17] = po, VOC-P188 and VOC-β-CD po, rats, read-out: bioavailability in the two preparations
[18] = po, VOC-P188 solid dispersion po, rat plasma, n = 6
[19] = po, VOC-P188 solid dispersion po, rat plasma, n = 6, read-out: Tmax
[20] = po, VOC-β-CD inclusion compound po, rat plasma, n = 6
[21] = po, VOC-β-CD inclusion compound po, rat plasma, n = 6, read-out: Tmax

## CCCC[C@@H]1OC(=O)c2ccccc21 [NBP, N-butylphthalide, reference compound]
[1]; [5]
  t1/2α: 0.06 ± 0.04 h
[1]; [6]
  t1/2α: 0.26 ± 0.10 h
[1]; [7]
  F2 (relative bioavailability): 197.67%
[1]; [8]
  t1/2α: 2.82 ± 1.55^** h
[1]; [9]
  F2 (relative bioavailability): 198.39%
[1]; [10]
  t1/2α: 3.95 ± 1.96^** h
[1]; [11]
  AUC(0-t): 54.6 ± 16.5 ng·h/mL
  MRT last: 32.4 ± 13.2 min
  half-life: 15.6 ± 9 min
[1]; [12]
  Tmax: 4.98 min
[1]; [13]
  Cmax: 196 ± 64.5 ng/mL
[1]; [14]
  AUC(0-t): 36.1 ± 7.58 ng·h/mL
  Cmax: 25.9 ± 8.3 ng/mL
  MRT last: 162 ± 28.2 min
  half-life: 39 ± 44.4 min
[1]; [15]
  Tmax: 28.2 ± 4.2 min
[1]; po, 120 mg/kg, VOC po vs VOC iv, rats, read-out: F1 (absolute bioavailability)
  bioavailability: < 25%
[1]; [16]
  Tmax: < 30 min
[1]; [17]
  bioavailability: < 50%
[1]; [18]
  AUC(0-t): 72.7 ± 9.8 ng·h/mL
  Cmax: 23.5 ± 1.59 ng/mL
  MRT last: 244 ± 27.6 min
  half-life: 188 ± 60.6 min
[1]; [19]
  Tmax: 19.2 ± 12 min
[1]; [20]
  AUC(0-t): 76.1 ± 24.6 ng·h/mL
  Cmax: 22.4 ± 5.56 ng/mL
  MRT last: 317 ± 62.4 min
  half-life: 263 ± 109 min
[1]; [21]
  Tmax: 49.8 ± 15.6 min

## CCC/C=C1\OC(=O)c2ccccc21 [BP]
[1]; [5]
  t1/2α: 0.04 ± 0.04 h
[1]; [6]
  t1/2α: 1.38 ± 1.02 h
[1]; [7]
  F2 (relative bioavailability): 251.50%
[1]; [8]
  t1/2α: 2.72 ± 3.66 h
[1]; [9]
  F2 (relative bioavailability): 363.55%
[1]; [10]
  t1/2α: 7.02 ± 5.42^* h
[1]; [11]
  AUC(0-t): 198 ± 42.8 ng·h/mL
  MRT last: 76.8 ± 19.2 min
  half-life: 42 ± 32.4 min
[1]; [12]
  Tmax: 4.98 min
[1]; [13]
  Cmax: 373 ± 155 ng/mL
[1]; [14]
  AUC(0-t): 99.1 ± 23.3 ng·h/mL
  Cmax: 43.7 ± 10.9 ng/mL
  MRT last: 208 ± 64.8 min
  half-life: 224 ± 196 min
[1]; [15]
  Tmax: 30 ± 16.8 min
[1]; [16]
  Tmax: < 30 min
[1]; [17]
  bioavailability: < 50%
[1]; [18]
  AUC(0-t): 249 ± 24.5 ng·h/mL
  Cmax: 40.3 ± 8.37 ng/mL
  MRT last: 445 ± 36 min
  half-life: 518 ± 146 min
[1]; [19]
  Tmax: 25.2 ± 19.8 min
[1]; [20]
  AUC(0-t): 298 ± 31.7 ng·h/mL
  Cmax: 38.8 ± 16 ng/mL
  MRT last: 507 ± 46.2 min
  half-life: 1170 ± 338 min
[1]; [21]
  Tmax: 21 ± 11.4 min
[2]
  solubility in pH 5.8 PBS: poor solubility

## CCC/C=C1\OC(=O)C2=C1CCC=C2 [ZL, Z-ligustilide]
[1]; [5]
  t1/2α: 0.04 ± 0.04 h
[1]; [6]
  t1/2α: 0.82 ± 0.51 h
[1]; [7]
  F2 (relative bioavailability): 163.35%
[1]; [8]
  t1/2α: 4.40 ± 4.10^* h
[1]; [9]
  F2 (relative bioavailability): 224.54%
[1]; [10]
  t1/2α: 4.72 ± 1.92^* h
[1]; [11]
  AUC(0-t): 1240 ± 435 ng·h/mL
  MRT last: 27 ± 6 min
  half-life: 33 ± 39.6 min
[1]; [12]
  Tmax: 4.98 min
[1]; [13]
  Cmax: 4530 ± 1450 ng/mL
[1]; [14]
  AUC(0-t): 504 ± 53.3 ng·h/mL
  Cmax: 214 ± 76 ng/mL
  MRT last: 236 ± 32.4 min
  half-life: 329 ± 157 min
[1]; [15]
  Tmax: 13.2 ± 5.4 min
[1]; [17]
  bioavailability: < 50%
[1]; [18]
  AUC(0-t): 801 ± 199 ng·h/mL
  Cmax: 320 ± 286 ng/mL
  MRT last: 357 ± 29.4 min
  half-life: 535 ± 315 min
[1]; [19]
  Tmax: 29.4 ± 25.2 min
[1]; [20]
  AUC(0-t): 883 ± 211 ng·h/mL
  Cmax: 145 ± 24.8 ng/mL
  MRT last: 439 ± 19.8 min
  half-life: 358 ± 174 min
[1]; [21]
  Tmax: 24 ± 10.2 min
[3]
  Oral bioavailability: 2.6%
[4]; in VOC-P188, 60 °C for 10 days
  content decreased by: 38.9%
[4]; in VOC-β-CD, 60 °C for 10 days
  content decreased by: 20.3%
[2]
  solubility in pH 5.8 PBS: poor solubility
